# In ChEMBL document CHEMBL5465560, “Selectivity Literature for EUbOPEN Chemogenomic Library” (2024):
# Experiments:
# [1] = target: Serine/threonine-protein kinase SIK1 (Homo sapiens) (UniProt P57059); assay: Selectivity interaction (KinomeScan (DiscoverX)) EUB0001049a SIK1; details: at 1 µM
# [2] = target: Serine/threonine-protein kinase Nek4 (Homo sapiens) (UniProt P51957); assay: Selectivity interaction (KinomeScan (DiscoverX)) EUB0000229b NEK4; details: at 10 µM
# [3] = target: Aurora kinase B (Homo sapiens, UniProt Q96GD4); assay: Selectivity interaction (Enzymatic assay) EUB0001550a AURKB
# Chain of Aurora kinase B (Q96GD4 whole entry): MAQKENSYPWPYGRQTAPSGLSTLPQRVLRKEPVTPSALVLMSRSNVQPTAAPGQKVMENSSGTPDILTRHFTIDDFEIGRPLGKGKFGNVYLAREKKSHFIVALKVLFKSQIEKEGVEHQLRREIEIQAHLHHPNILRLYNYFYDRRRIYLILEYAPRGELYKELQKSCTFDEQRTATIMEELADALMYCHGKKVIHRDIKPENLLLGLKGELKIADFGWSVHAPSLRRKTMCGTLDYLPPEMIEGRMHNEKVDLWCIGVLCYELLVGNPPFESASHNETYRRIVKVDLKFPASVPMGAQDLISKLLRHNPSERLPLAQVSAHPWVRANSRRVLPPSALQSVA
# [4] = target: T1, Mitogen-activated protein kinase 13 (Homo sapiens) (UniProt O15264); assay: Selectivity interaction (KinomeScan (DiscoverX)) EUB0000595a MAPK13; details: at 10 µM
# T1 sequence (whole entry): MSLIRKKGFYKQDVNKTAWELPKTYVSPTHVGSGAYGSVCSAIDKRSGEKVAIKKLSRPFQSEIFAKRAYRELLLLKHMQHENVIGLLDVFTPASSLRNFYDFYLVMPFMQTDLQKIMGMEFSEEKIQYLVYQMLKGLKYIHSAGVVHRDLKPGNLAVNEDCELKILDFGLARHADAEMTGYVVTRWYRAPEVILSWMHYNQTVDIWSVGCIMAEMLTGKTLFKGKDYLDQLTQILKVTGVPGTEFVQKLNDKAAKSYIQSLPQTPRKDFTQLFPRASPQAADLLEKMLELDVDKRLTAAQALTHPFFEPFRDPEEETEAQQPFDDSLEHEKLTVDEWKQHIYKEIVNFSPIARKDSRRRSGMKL
# [5] = target: T2, Tyrosine-protein kinase JAK3 (Homo sapiens) (UniProt P52333); assay: Selectivity interaction (KinomeScan (DiscoverX)) EUB0000092b JAK3; details: at 10 µM
# T2 sequence (whole entry): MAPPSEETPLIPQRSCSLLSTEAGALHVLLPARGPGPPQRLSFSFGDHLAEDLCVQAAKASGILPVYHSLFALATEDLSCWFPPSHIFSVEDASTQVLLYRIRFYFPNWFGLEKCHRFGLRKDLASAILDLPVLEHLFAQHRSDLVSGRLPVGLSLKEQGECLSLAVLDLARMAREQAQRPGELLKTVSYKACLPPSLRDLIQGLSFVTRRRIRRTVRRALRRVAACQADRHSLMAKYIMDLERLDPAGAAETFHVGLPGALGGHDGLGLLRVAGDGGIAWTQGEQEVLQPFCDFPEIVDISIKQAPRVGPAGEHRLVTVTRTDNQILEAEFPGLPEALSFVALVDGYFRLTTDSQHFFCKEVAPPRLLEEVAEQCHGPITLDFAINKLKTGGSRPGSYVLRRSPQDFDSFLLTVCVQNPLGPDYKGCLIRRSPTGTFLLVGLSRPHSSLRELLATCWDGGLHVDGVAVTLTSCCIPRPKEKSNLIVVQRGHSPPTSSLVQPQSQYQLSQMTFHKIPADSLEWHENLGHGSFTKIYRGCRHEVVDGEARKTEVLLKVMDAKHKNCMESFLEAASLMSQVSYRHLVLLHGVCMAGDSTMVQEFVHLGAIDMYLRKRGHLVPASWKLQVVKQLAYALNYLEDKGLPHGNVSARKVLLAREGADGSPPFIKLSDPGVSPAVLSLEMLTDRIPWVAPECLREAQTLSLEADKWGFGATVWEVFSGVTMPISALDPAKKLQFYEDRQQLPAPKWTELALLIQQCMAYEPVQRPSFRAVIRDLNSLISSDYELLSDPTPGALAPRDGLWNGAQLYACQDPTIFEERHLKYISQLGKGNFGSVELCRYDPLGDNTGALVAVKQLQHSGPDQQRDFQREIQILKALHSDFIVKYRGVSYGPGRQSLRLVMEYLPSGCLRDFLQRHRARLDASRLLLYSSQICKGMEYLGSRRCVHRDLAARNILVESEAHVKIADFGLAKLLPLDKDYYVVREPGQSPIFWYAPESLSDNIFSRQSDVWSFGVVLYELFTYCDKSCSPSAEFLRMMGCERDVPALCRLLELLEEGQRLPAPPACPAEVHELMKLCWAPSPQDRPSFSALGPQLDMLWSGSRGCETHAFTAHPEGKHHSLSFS
# [6] = target: Ribosomal protein S6 kinase alpha-6 (Homo sapiens, UniProt Q9UK32); assay: Selectivity interaction (KinomeScan (DiscoverX)) EUB0000092b RPS6KA6; details: at 10 µM
# Chain of Ribosomal protein S6 kinase alpha-6 (Q9UK32 whole entry): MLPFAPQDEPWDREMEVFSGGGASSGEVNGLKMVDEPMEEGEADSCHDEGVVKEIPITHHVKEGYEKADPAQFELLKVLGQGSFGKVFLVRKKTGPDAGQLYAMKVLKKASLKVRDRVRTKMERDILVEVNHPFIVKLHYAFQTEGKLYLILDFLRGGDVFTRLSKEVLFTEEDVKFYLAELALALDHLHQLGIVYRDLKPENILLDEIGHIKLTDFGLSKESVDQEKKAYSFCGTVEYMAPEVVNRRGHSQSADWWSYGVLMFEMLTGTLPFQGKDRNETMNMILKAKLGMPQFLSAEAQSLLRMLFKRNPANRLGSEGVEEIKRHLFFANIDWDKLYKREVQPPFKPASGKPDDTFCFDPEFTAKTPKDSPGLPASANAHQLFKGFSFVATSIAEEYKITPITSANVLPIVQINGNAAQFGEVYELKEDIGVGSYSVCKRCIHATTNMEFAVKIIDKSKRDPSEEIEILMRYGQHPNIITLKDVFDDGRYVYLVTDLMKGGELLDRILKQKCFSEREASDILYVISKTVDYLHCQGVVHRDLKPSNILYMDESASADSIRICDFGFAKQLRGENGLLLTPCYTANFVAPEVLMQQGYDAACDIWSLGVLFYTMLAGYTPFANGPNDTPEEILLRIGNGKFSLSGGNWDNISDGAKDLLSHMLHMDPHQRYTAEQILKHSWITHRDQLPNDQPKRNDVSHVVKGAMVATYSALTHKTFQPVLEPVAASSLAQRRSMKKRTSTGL
# [7] = target: Angiopoietin-1 receptor (Homo sapiens) (UniProt Q02763); assay: Selectivity interaction (Kinase screening (Nanosyn)) EUB0000604a TEK
# Chain of Angiopoietin-1 receptor (Homo sapiens) (Q02763 whole entry): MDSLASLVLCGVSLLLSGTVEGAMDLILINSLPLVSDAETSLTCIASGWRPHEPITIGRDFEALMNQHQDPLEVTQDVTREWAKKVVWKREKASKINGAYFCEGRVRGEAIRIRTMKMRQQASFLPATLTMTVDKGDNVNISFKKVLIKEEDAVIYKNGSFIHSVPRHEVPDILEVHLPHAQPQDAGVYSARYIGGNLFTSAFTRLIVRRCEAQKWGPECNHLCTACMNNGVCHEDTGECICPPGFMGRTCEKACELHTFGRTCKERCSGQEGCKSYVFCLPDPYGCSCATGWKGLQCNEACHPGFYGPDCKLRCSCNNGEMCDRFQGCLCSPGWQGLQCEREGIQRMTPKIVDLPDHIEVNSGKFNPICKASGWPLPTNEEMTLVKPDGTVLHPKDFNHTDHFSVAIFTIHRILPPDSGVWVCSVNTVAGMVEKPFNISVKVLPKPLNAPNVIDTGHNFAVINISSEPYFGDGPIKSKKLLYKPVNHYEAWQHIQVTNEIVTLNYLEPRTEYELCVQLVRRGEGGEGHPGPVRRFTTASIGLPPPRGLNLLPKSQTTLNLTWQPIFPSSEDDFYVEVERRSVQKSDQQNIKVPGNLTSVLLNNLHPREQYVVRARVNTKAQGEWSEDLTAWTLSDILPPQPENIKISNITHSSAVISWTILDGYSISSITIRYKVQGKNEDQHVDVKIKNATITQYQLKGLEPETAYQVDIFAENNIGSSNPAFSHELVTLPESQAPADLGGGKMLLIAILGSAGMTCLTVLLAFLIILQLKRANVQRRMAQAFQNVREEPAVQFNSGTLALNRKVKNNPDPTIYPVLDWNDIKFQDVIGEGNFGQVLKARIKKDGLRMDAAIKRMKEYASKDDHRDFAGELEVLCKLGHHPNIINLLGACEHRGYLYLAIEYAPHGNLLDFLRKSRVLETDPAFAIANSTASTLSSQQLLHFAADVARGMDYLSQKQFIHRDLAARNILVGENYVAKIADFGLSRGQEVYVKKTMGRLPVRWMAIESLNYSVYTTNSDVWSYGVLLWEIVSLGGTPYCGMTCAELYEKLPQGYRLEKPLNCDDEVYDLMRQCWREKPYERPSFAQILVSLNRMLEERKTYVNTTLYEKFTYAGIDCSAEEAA
# [8] = target: Calcium/calmodulin-dependent protein kinase kinase 1 (Homo sapiens) (UniProt Q8N5S9); assay: Selectivity interaction (KinomeScan (DiscoverX)) EUB0000618a CAMKK1; details: at 10 µM
# Chain of Calcium/calmodulin-dependent protein kinase kinase 1 (Homo sapiens) (Q8N5S9 whole entry, looked up): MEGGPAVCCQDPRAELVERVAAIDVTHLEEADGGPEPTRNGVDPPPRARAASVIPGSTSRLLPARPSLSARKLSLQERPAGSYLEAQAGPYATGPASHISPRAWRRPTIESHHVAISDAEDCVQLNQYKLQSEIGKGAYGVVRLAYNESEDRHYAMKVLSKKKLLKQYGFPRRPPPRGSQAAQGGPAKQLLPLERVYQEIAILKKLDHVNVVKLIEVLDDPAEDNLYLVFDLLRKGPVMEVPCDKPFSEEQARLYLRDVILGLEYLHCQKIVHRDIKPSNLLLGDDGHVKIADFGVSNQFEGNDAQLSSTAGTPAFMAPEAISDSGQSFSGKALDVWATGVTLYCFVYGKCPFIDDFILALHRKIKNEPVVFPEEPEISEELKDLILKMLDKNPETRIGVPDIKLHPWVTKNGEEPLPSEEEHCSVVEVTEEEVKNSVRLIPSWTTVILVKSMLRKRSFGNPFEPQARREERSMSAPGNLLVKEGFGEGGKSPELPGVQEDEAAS
# [9] = target: T3, Dual specificity mitogen-activated protein kinase kinase 7 (Homo sapiens) (UniProt O14733); assay: Selectivity interaction (Upstate Kinase Profiler service (Millipore)) EUB0000056c MAP2K7; details: at 1 µM
# T3 sequence (whole entry): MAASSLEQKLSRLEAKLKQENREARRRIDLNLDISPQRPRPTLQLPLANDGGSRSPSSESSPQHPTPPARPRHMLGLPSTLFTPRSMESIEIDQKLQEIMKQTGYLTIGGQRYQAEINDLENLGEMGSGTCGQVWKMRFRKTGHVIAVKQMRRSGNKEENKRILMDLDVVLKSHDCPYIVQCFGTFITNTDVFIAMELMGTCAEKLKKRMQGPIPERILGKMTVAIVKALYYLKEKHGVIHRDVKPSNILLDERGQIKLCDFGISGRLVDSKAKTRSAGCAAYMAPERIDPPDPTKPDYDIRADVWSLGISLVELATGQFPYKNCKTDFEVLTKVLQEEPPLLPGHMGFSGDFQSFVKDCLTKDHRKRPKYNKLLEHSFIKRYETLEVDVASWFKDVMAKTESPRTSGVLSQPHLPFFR
# [10] = target: Dual specificity mitogen-activated protein kinase kinase 2 (Homo sapiens) (UniProt P36507); assay: Selectivity interaction (KinomeScan (DiscoverX)) EUB0000695a MAP2K2; details: at 100 nM
# Chain of Dual specificity mitogen-activated protein kinase kinase 2 (Homo sapiens) (P36507 whole entry): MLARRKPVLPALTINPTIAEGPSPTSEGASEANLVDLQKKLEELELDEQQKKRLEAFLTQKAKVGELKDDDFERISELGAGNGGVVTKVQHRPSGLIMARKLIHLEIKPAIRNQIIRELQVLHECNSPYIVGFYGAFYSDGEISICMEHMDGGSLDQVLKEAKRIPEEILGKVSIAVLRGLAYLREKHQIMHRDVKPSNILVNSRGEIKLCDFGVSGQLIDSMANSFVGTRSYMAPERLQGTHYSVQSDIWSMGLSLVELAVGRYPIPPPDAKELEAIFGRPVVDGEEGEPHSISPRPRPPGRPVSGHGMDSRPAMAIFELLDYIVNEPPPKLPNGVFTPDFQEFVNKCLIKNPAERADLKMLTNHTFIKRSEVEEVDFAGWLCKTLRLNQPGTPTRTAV
# [11] = target: T4, Serine/threonine-protein kinase ULK3 (Homo sapiens) (UniProt Q6PHR2); assay: Selectivity interaction (KinomeScan (DiscoverX)) EUB0000607a ULK3; details: at 10 µM
# T4 sequence (whole entry): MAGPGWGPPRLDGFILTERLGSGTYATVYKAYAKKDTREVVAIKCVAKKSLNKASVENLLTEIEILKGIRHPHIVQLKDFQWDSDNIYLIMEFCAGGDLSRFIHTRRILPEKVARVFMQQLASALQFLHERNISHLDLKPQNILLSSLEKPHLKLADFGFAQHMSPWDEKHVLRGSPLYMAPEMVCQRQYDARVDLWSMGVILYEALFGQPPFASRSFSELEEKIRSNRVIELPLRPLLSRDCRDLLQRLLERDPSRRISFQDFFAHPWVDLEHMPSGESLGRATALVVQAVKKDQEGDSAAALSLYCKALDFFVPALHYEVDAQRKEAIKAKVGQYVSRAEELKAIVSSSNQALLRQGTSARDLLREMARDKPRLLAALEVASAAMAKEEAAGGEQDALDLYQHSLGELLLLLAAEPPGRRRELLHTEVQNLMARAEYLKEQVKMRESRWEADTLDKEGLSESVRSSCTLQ
# Chain of Serine/threonine-protein kinase SIK1 (Homo sapiens) (P57059 whole entry): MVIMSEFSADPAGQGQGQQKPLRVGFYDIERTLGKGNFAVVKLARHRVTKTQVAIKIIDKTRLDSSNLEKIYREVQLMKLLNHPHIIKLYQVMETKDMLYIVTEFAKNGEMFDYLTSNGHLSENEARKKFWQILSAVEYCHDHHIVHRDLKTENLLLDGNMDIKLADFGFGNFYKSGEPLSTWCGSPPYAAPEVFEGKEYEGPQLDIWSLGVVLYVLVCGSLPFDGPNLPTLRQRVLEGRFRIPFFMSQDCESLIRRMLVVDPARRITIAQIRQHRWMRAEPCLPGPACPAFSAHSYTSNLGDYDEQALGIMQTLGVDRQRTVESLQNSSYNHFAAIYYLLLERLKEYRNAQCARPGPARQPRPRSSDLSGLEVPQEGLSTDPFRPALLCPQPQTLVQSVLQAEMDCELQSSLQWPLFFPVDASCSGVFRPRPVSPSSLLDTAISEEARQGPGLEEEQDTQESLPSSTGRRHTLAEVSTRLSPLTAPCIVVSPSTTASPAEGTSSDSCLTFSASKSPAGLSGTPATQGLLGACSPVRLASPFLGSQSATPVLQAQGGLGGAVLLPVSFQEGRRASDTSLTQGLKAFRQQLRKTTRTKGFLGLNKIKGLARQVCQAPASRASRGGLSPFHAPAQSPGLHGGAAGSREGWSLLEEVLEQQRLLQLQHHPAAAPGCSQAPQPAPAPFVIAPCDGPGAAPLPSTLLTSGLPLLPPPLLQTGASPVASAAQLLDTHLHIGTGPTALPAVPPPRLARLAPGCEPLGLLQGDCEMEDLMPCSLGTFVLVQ
# Chain of Serine/threonine-protein kinase Nek4 (Homo sapiens) (P51957 whole entry, looked up): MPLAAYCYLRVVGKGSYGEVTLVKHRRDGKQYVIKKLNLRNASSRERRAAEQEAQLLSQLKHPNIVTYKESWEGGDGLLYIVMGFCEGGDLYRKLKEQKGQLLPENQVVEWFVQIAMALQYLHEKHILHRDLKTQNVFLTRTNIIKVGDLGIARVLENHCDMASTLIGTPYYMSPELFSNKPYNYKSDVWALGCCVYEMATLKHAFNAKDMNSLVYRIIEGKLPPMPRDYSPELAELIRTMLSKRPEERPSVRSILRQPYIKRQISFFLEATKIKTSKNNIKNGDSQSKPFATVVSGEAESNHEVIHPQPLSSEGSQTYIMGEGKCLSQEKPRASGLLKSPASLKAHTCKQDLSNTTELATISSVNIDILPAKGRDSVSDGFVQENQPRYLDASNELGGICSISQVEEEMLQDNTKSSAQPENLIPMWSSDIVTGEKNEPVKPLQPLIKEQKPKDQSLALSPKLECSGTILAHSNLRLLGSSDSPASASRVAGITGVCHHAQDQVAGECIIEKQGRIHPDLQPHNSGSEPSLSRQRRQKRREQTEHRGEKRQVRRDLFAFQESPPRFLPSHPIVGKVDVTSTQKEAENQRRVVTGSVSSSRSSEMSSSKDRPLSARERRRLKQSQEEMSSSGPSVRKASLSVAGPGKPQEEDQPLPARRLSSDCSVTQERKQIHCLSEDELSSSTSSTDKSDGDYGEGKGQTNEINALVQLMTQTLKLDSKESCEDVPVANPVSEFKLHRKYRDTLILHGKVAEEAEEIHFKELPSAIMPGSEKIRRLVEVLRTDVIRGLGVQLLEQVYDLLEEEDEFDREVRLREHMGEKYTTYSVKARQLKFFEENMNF
structure (smiles),measurement,setting,value
COc1cc(Nc2nc(C)cc(-c3cnn4nc(OC)ccc34)n2)cc(C(F)(F)F)c1,% of control,[1],93%
COc1cc(N(C)c2ccnc3ccc(C(F)(F)F)cc23)cc(OC)c1OC,% binding,[2],82%
CN(C)CC#Cc1ccc2[nH]c3c(c2c1)-c1nc(N)ncc1CCC3,IC50,[3],1.4 µM
COCC(=O)NC/C=C/c1ccc2ncnc(Nc3ccc(Oc4ccc(C)nc4)c(C)c3)c2c1 [CP-724714],% of control,[4],100%
CCC(=O)N1CCN(c2ccc(-n3c(=O)ccc4cnc5ccc(-c6cnc7ccccc7c6)cc5c43)cc2C(F)(F)F)CC1,% of control,[5],100%
same,% of control,[6],66%
Cc1cnc(Nc2ccc(F)cc2Cl)nc1-c1c[nH]c(C(=O)N[C@H](CO)c2cccc(Cl)c2)c1,% of inhibition,[7],0%
O[C@H]1CC[C@H](Nc2ncc3nc(Nc4c(F)cc(F)cc4F)n([C@H]4CCOC4)c3n2)CC1,% of control,[8],100%
Cc1ccc(-c2ccc3c(ccc4sc5c(c43)NC[C@@H](C)NC5=O)n2)cn1,% of inhibition,[9],-8%
Cc1cc(F)c(C(=O)Nc2cccc(-c3nncn3C(C)C)n2)cc1-n1cnc(C2CC2)c1,% of control,[10],97%
CNC(=O)Nc1ccc(-c2nc(N3CC4CCC(C3)O4)c3cnn(C4CCC5(CC4)OCCO5)c3n2)cc1,% of control,[11],92%
